Experimental data reported in patent US8324190B2, “Treatment of proliferative disorders with amino-substituted (E)-2,6- dialkoxystyryl 4-substituted benzylsulfones” (Temple University—Of The Commonwealth System of Higher …, priority 2002, dated 2012).
Where a name gives a salt, the structure may show the parent alone.

Tests used:
Assay in all cases: Tumor cell viability assay, Trypan blue exclusion
Format in all cases: cell-based
Settings in all cases: cell viability after 96 hours
[1] = tested on: colorectal carcinoma cell line DLD-1
Method: (§1) BT-20 is an estrogen-unresponsive cell line. NIH/3T3 and HFL are normal murine and human fibroblasts, respectively. BT-20, DLD-1 and H157 were grown in Dulbecco's modified Eagle's medium (DMEM) containing 10% fetal bovine serum supplemented with penicillin and streptomycin. DU145 was cultured in RPMI with 10% fetal bovine serum containing penicillin and streptomycin. NIH3T3 and HFL cells were grown in DMEM containing 10% calf serum supplemented with penicillin and streptomycin. Cells were plated at density levels of 1.0×10^5 cells per well in six-well plates. Cell cultures were maintained at 37° C. in a humidified atmosphere of 5% CO2. Cells were treated with compounds of the invention at various concentrations. Cell viability was determined after 96 hours by the Trypan blue exclusion method. […] The number of viable cells remaining after 96 hours of treatment was determined using hemacytometer following trypan blue staining. The number of viable cells has been plotted as the percent of Vehicle treated (control) cells.

[2] = tested on: prostate carcinoma cell line DU-145
Method: as §1

[3] = tested on: breast adenocarcinoma cell line BT-20
Method: as §1

[4] = tested on: non-small cell lung carcinoma cell line H157
Method: as §1

Measured: IC50

COc1cc(OC)c(/C=C/S(=O)(=O)Cc2ccc(OC)c(NC(=O)C(C)(C)OC(C)=O)c2)c(OC)c1 [Example 31, (E)-2,4,6-trimethoxystyryl-3-(2-methyl-2-acetoxypropionamido)-4-methoxybenzyl-sulfone]
< 10 µM: all assays above

COc1cc(OC)c(/C=C/S(=O)(=O)Cc2ccc(OC)c(NC(=O)C(F)(F)F)c2)c(OC)c1 [Example 32, (E)-2,4,6-trimethoxystyryl-3-(trifluoroacetamido)-4-methoxy-benzylsulfone]
< 10 µM: all assays above

COc1cc(OC)c(/C=C/S(=O)(=O)Cc2ccc(OC)c(NS(=O)(=O)C(F)(F)F)c2)c(OC)c1 [Example 33, (E)-2,4,6-trimethoxystyryl-3-(trifluoromethanesulfonamido)-4-methoxy-benzylsulfone]
< 10 µM: all assays above

COc1cc(OC)c(/C=C/S(=O)(=O)Cc2ccc(OC)c(NC(=O)CCC(=O)O)c2)c(OC)c1 [Example 34, (E)-2,4,6-trimethoxystyryl-3-(succinamido)-4-methoxybenzyl-sulfone]
< 10 µM: all assays above

COc1cc(OC)c(/C=C/S(=O)(=O)Cc2ccc(OC)c(NC(=O)CC(Cl)C(=O)O)c2)c(OC)c1 (stereo not drawn) [Example 35, (E)-2,4,6-trimethoxystyryl-3-(3-chlorosuccinamido)-4-methoxy-benzylsulfone]
< 10 µM: all assays above

COc1cc(OC)c(/C=C/S(=O)(=O)Cc2ccc(OC)c(NC(=O)COC(=O)CCC(=O)O)c2)c(OC)c1 [Example 36, (E)-2,4,6-trimethoxystyryl-3-[3-(3-carboxypropanoyloxy)-acetamido]-4-methoxybenzylsulfone]
< 10 µM: all assays above

COc1cc(OC)c(/C=C/S(=O)(=O)Cc2ccc(OC)c(NC(=O)CCCC(=O)O)c2)c(OC)c1 [Example 37, (E)-2,4,6-trimethoxystyryl-3-(glutaramido)-4-methoxybenzyl-sulfone]
< 10 µM: all assays above

COc1cc(OC)c(/C=C/S(=O)(=O)Cc2ccc(OC)c(NC(=O)CP(=O)(O)O)c2)c(OC)c1 [Example 38, (E)-2,4,6-trimethoxystyryl-3-(phosphonatoacetamido)-4-methoxybenzylsulfone, disodium salt]
< 10 µM: all assays above

COc1cc(OC)c(/C=C/S(=O)(=O)Cc2ccc(OC)c(NCCCC(=O)O)c2)c(OC)c1 [Example 39, (E)-2,4,6-trimethoxystyryl-3-(3-carboxypropylamino)-4-methoxybenzylsulfone]
< 10 µM: all assays above

COc1cc(OC)c(/C=C/S(=O)(=O)Cc2ccc(OC)c(NCCC(=O)O)c2)c(OC)c1 [Example 40, (E)-2,4,6-trimethoxystyryl-3-(2-carboxyethylamino)-4-methoxy-benzylsulfone]
< 10 µM: all assays above

COC(=O)Nc1cc(CS(=O)(=O)/C=C/c2c(OC)cc(OC)cc2OC)ccc1OC [Example 41, (E)-2,4,6-trimethoxystyryl-3-(methoxycarbonylamino)-4-methoxy-benzylsulfone]
< 10 µM: all assays above

COc1ccc(S(=O)(=O)Nc2cc(CS(=O)(=O)/C=C/c3c(OC)cc(OC)cc3OC)ccc2OC)cc1 [Example 42, (E)-2,4,6-trimethoxystyryl-3-(4-methoxybenzenesulfamyl)-4-methoxybenzylsulfone]
< 10 µM: all assays above

COc1cc(OC)c(/C=C/S(=O)(=O)Cc2ccc(OC)c(NC(=O)C(C)OC(C)=O)c2)c(OC)c1 (stereo not drawn) [Example 43, (E)-2,4,6-trimethoxystyryl-3-(2-acetoxypropionamido)-4-methoxybenzylsulfone]
< 10 µM: all assays above

COC(=O)CCC(=O)Nc1cc(CS(=O)(=O)/C=C/c2c(OC)cc(OC)cc2OC)ccc1OC [Example 44, (E)-2,4,6-trimethoxystyryl-3-(methylsuccinamido)-4-methoxy-benzylsulfone]
< 10 µM: all assays above

COc1cc(OC)c(/C=C/S(=O)(=O)Cc2ccc(OC)c(NC(=O)C(F)(F)C(F)(F)F)c2)c(OC)c1 [Example 46, (E)-2,4,6-trimethoxystyryl-3-(pentafluoropropionamido)-4-methoxybenzylsulfone]
< 10 µM: all assays above

COC(=O)C(F)(F)C(=O)Nc1cc(CS(=O)(=O)/C=C/c2c(OC)cc(OC)cc2OC)ccc1OC [Example 47, (E)-2,4,6-trimethoxystyryl-3-(methyl-2,2-difluoromalonamido)-4-methoxybenzylsulfone]
< 10 µM: all assays above

COc1cc(OC)c(/C=C/S(=O)(=O)Cc2ccc(OC)c(NC(=O)C(F)(F)C(F)(F)C(=O)O)c2)c(OC)c1 [Example 48, (E)-2,4,6-Trimethoxystyryl-3-(2,2,3,3,tetrafluorosuccinamido)-4-methoxybenzylsulfone]
< 10 µM: all assays above

COc1cc(OC)c(/C=C/S(=O)(=O)Cc2ccc(OC)c(NC(=O)CN)c2)c(OC)c1 [Example 49, (E)-2,4,6-Trimethoxy-styryl-3-(aminoacetamido)-4-methoxy-benzylsulfone, hydrochloride]
< 10 µM: all assays above

(E)-2,4,6-Trimethoxystyryl-3-amino-4-methoxybenzylsulfone-D-serineamide [Example 15]
< 10 µM: all assays above

(E)-2,4,6-Trimethoxystyryl-3-amino-4-methoxybenzylsulfone-L-lysineamide [Example 13]
< 10 µM: all assays above

(E)-2,4,6-Trimethoxystyryl-3-amino-4-methoxybenzylsulfone-L-serineamide [Example 14]
< 10 µM: all assays above
